Among the data in patent US20040176361A1, “Fused heterocyclic compound and medicinal use thereof” (priority 2001, published 2004) are melting point values, retold here.

With `Cc1cccc2c(=O)[nH]c(CC3CN4CCC3CC4)nc12` (stereo not drawn), the melting point is 187 to 188 °C (dec.).

Compound `CC1CN(c2cc3ccccc3c(=O)[nH]2)CCN1` (stereo not drawn) had a melting point of 164 to 167 °C.

The compound `CC1CN(c2cc3ccccc3c(=O)[nH]2)CC(C)N1` (stereo not drawn) registered a melting point of 208 to 210 °C.

As for `CN1CCC(c2cc3ncccc3c(=O)[nH]2)CC1`, the melting point is > 240 °C (dec.).

In turn, `Cc1c(C2CCN(C)CC2)[nH]c(=O)c2ccccc12` came in with a melting point of 202 to 204 °C.

Regarding `CN1CCCC(c2cc3ccccc3c(=O)[nH]2)C1` (stereo not drawn), the melting point lay in the range of 155 to 156 °C.

For `Cc1ccc2c(=O)[nH]c(C3CCN(C)CC3)cc2c1`, the melting point is 236 to 238 °C.

Compound `Cc1ccc2cc(C3CCN(C)CC3)[nH]c(=O)c2c1` had a melting point of 239 to 241 °C.

Compound `Cc1cccc2cc(C3CCN(C)CC3)[nH]c(=O)c12` yielded a melting point of 200 to 202 °C.

Compound `CN1CCC(c2cc3ccc(O)cc3c(=O)[nH]2)CC1.Cl` gave a melting point of 284 to 286 °C.

Regarding `Cc1ccc2c(=O)[nH]c(N3CCN(C)CC3)cc2c1`, the melting point was 242 to 243 °C (dec.).

`Cc1cccc2cc(N3CCN(C)CC3)[nH]c(=O)c12`: the melting point is 224 to 225 °C (dec.).

In the case of `Br.O=c1[nH]c(C2CCNCC2)cc2ccccc12`, the melting point is over 270 °C.

On to `Br.O=c1[nH]c(C2CCNCC2)c(-c2ccccc2)c2ccccc12`, for which the melting point is over 270 °C.

Consider `CN(C)C1CCN(c2cc3ccccc3c(=O)[nH]2)C1` (stereo not drawn) [Example 2, 3-(3-dimethylaminopyrrolidine-1-yl)-2H-isoquinolin-1-one], for which the melting point is 233 to 234 °C (dec.).

On to `CCCN1CCN(c2cc3ccccc3c(=O)[nH]2)CC1` [Example 7, 3-(4-propylpiperazine-1-yl)-2H-isoquinolin-1-one], for which the melting point was 208 to 209 °C (dec.).

With `CS(=O)(=O)N1CCN(c2cc3ccccc3c(=O)[nH]2)CC1` [Example 8, 3-(4-methanesulfonylpiperazin-1-yl)-2H-isoquinolin-1-one], the melting point was 257 to 259 °C (dec.).

For `CCOC(=O)N1CCN(c2cc3ccccc3c(=O)[nH]2)CC1` [Example 9, 3-(4-ethoxycarbonylpiperazin-1-yl)-2H-isoquinolin-1-one], the melting point was 191 to 192 °C (dec.).

On to `CN1CCCN(c2cc3ccccc3c(=O)[nH]2)CC1` [Example 10, 3-(4-methylhomopiperazin-1-yl)-2H-isoquinolin-1-one], for which the melting point is 171 to 172 °C (dec.).

For the compound `CN(C)C1CCN(c2cc3ccc(Br)cc3c(=O)[nH]2)CC1` [Example 31, 7-bromo-3-(4-dimethylaminopiperidin-1-yl)-2H-isoquinolin-1-one], the melting point was 227 to 228 °C (dec.).

`CN(C)C1CCN(c2cc3c(Br)cccc3c(=O)[nH]2)CC1` [Example 32, 5-bromo-3-(4-dimethylaminopiperidin-1-yl)-2H-isoquinolin-1-one]: the melting point is 214 to 215 °C (dec.).

Regarding `O=c1[nH]c(N2CCN(CCO)CC2)cc2c(F)cccc12` [Example 33, 5-fluoro-3-(4-(2-hydroxyethyl)piperazin-1-yl)-2H-isoquinolin-1-one], the melting point was 207 to 208 °C (dec.).

For `Cc1ccc2c(=O)[nH]c(N3CCN(CCO)CC3)cc2c1` [Example 35, 3-(4-(2-hydroxyethyl)piperazin-1-yl)-6-methyl-2H-isoquinolin-1-one], the melting point was 236 to 237 °C (dec.).

For `Cc1cccc2cc(N3CCN(CCO)CC3)[nH]c(=O)c12` [Example 41, 3-[4-(2-hydroxyethyl)piperazin-1-yl]-8-methyl-2H-isoquinolin-1-one], the melting point is 209 to 210 °C (dec.).

Turning to `Cc1cccc2c(=O)[nH]c(N3CCN(CCCCN4CCN(C)CC4)CC3)cc12` [Example 75, 5-methyl-3-(4-(4-(4-methylpiperazin-1-yl)butyl)piperazin-1-yl)-2H-isoquinolin-1-one], the melting point is 202 to 203 °C (dec.).

With `O=c1[nH]c(N2CCN(CCCCN3CCCCC3)CC2)cc2ccc(Br)cc12` [Example 76, 7-bromo-3-{4-[4-(piperidin-1-yl)butyl]piperazin-1-yl}-2H-isoquinolin-1-one], the melting point is 211 to 212 °C (dec.).

Consider `O=c1[nH]c(N2CCN(CCCCN3CCCCC3)CC2)cc2c(Cl)cccc12` [Example 77, 5-chloro-3-{4-[4-(piperidin-1-yl)butyl]piperazin-1-yl}-2H-isoquinolin-1-one], for which the melting point was 172 to 173 °C (dec.).

For `O=c1[nH]c(N2CCN(CCCCN3CCCCC3)CC2)cc2c(Br)cccc12` [Example 78, 5-bromo-3-{4-[4-(piperidin-1-yl)butyl]piperazin-1-yl}-2H-isoquinolin-1-one], the melting point is 165 to 166 °C (dec.).

For `CN1CCN(C(=O)c2cc3ccccc3c(=O)[nH]2)CC1` [Example 83, 3-((4-methylpiperazin-1-yl)carbonyl)-2H-isoquinolin-1-one], the melting point is 170 to 172 °C.

For `COc1ccc(-c2c(C3CCN(C)CC3)[nH]c(=O)c3ccccc23)cc1` [Example 99, 4-(4-methoxyphenyl)-3-(1-methylpiperidin-4-yl)-2H-isoquinolin-1-one], the melting point fell in the range of 209 to 211 °C.

Consider `CN1CCC(c2[nH]c(=O)c3ccccc3c2-c2ccc(Cl)cc2)CC1` [Example 100, 4-(4-chlorophenyl)-3-(1-methylpiperidin-4-yl)-2H-isoquinolin-1-one], for which the melting point lay in the range of 254 to 256 °C.

On to `CN1CCN(N2CC(=O)c3c(ccc4ccccc34)C2)CC1` [Example 114, 3-(4-methylpiperazin-1-yl)-2H-benz[f]isoquinolin-1-one], for which the melting point is 253 to 254 °C (dec.).

`CN(C)C1CCN(N2CC(=O)c3c(ccc4ccccc34)C2)CC1` [Example 115, 3-(4-dimethylaminopiperidin-1-yl)-2H-benz[f]isoquinolin-1-one]: the melting point is 232 to 233 °C (dec.).

Take `Cc1cccc2c(=O)[nH]c(C3CCC(N(C)C)CC3)nc12` (stereo not drawn) [Example 137, 8-methyl-2-(4-dimethylaminocyclohexan-1-yl)-3H-quinazolin-4-one]: the melting point is 181 to 183 °C (dec.).

`CN(C)C1CCC(c2cc3ccccc3c(=O)[nH]2)CC1` (stereo not drawn) [Example 147, 3-(4-(dimethylamino)cyclohexan-1-yl)-2H-isoquinolin-1-one] had a melting point of 256 to 258 °C.

In turn, `CN1CCN(CCCc2cc3ccccc3c(=O)[nH]2)CC1` [Example 148, 3-(3-(4-methylpiperazin-1-yl)propyl)-2H-isoquinolin-1-one] yielded a melting point of 120 to 122 °C.

Take `CN1CCN(c2cc3ccccc3c(=O)[nH]2)[C@@H](CO)C1` [Example 151, (R)-3-(2-hydroxymethyl-4-methylpiperazin-1-yl)-2H-isoquinolin-1-one]: the melting point was in the range of 172 to 174 °C.

Compound `CN1CCN(c2cc3ccccc3c(=O)[nH]2)[C@H](CO)C1` [Example 152, (S)-3-(2-hydroxymethyl-4-methylpiperazin-1-yl)-2H-isoquinolin-1-one] gave a melting point of 169 to 171 °C.

The compound `CCOC(=O)C1CN(c2cc3ccccc3c(=O)[nH]2)CCN1C` (stereo not drawn) [Example 154, 3-(3-ethoxycarbonyl-4-methylpiperazin-1-yl)-2H-isoquinolin-1-one] came in with a melting point of 105 to 109 °C.
